Consider 23 molecules from patent US6423716B1, “Nitrogenous heterocyclic compounds” (Kyowa Hakko Kogyo Co., Ltd., priority 1998, dated 2002).

The target of one series is T1, human β-PDGF receptor (Homo sapiens, UniProt P09619).
T1 construct: expressed in transfected cells; host or cells: Chinese hamster ovary (CHO) cells
T1 sequence (P09619 33-1106): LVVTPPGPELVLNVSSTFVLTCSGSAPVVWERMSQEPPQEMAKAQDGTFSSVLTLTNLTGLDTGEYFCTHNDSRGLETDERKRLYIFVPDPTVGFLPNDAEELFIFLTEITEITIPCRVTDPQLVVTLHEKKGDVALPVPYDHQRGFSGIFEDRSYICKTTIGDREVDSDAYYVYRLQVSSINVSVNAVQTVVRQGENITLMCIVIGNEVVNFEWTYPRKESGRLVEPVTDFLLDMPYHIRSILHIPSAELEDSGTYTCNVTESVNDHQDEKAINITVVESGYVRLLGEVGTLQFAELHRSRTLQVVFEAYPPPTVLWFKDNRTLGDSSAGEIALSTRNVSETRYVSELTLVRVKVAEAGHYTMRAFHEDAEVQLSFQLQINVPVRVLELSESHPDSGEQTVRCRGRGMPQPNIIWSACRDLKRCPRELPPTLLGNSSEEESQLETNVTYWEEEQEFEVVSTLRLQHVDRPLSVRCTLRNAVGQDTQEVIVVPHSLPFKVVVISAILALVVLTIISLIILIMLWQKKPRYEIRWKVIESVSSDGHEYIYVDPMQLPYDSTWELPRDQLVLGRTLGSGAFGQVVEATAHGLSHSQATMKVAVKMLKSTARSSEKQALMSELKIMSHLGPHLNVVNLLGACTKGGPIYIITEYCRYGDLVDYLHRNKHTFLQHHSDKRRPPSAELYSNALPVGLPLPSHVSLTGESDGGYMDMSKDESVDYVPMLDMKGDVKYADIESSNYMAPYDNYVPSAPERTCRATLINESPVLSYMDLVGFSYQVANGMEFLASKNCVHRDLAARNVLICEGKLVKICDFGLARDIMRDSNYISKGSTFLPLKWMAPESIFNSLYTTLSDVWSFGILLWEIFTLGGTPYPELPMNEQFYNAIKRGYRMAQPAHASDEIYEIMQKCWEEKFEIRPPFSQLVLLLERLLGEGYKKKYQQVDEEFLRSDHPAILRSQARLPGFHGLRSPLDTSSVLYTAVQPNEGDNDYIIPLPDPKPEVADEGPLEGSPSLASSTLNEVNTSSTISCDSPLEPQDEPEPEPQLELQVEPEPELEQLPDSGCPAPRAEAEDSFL
The experiment in a line: PDGF receptor phosphorylation inhibition test. The class given is cell-based. The settings on record: CHO cells expressing human β-PDGF receptor cDNA; concentration inhibiting 50% of PDGF receptor phosphorylation. How it is done:
PDGF Receptor Phosphorylation Inhibition Test
This test was carried out according to the process disclosed in a literature [J. Biol. Chem., 266: 413-418 (1991)]. In this case, Chinese hamster ovary (CHO) cells to which human β-PDGF receptor cDNA had been inserted and in which it had been expressed were used in the test.
In turn, `COc1cc2ncnc(N3CCN(C(=NC#N)NCc4ccc(Cl)cc4)CC3)c2cc1OC` [Compound 31, N-(4-Chlorobenzyl)-N′-cyano-4-(6,7-dimethoxy-4-quinazolinyl)-1-piperazinecarboxamidine] registered an IC50 of 380 nM. The same measure, in the same setting: for `COc1cc2ncnc(N3CCN(C(=NC#N)NCc4ccc5c(c4)OCO5)CC3)c2cc1OC` [Compound 41, N′-Cyano-4-(6,7-dimethoxy-4-quinazolinyl)-N-(3,4-methylenedioxybenzyl)-1-piperazinecarboxamidine] the value was 190 nM.

Still in this series, the particulars now being: CHO cells expressing human β-PDGF receptor; test compound at 10 μM.
Turning to `COc1ccc(CNC(=C(C#N)C#N)N2CCN(c3ncnc4cc(OC)c(OC)cc34)CC2)cc1` [Compound 53, 4-{4-[2,2-Dicyano-1-(4-methoxybenzylamino)vinyl]-1-piperazinyl}-6,7-dimethoxyquinazoline], the inhibition at 10 µM is 87%.

As for `COc1cc2ncnc(N3CCN(C(=NC#N)Oc4ccccc4)CC3)c2cc1OC` [Compound 67, N-Cyano-4-(6,7-dimethoxy-4-quinazolinyl)-1-piperazinecarboximidic acid phenyl ester], 10 µM produced 95% inhibition. Same read-out and setting: then `COc1cc2ncnc(N3CCN(C(SC)=C(C#N)C#N)CC3)c2cc1OC` [Compound 64, 4-[4-(2,2-Dicyano-1-methylthiovinyl)-1-piperazinyl]-6,7-dimethoxyquinazoline], with 82%; and `O=C(Nc1ccc(Oc2ccccc2)cc1)N1CCN(c2ncnc3cnc(F)cc23)CC1` [Compound 22, N-(4-Phenoxyphenyl)-4-(6-fluoro-4-pyrido[3,4-d]pyrimidinyl)-1-piperazinecarboxamide], with 66%. The same measure, in the same setting: then `COc1cc2ncnc(N3CCN(C(NCc4cccc(Cl)c4)=C(C#N)C#N)CC3)c2cc1OC` [Compound 51, 4-{4-[1-(3-Chlorobenzylamino)-2,2-dicyanovinyl]-1-piperazinyl}-6,7-dimethoxyquinazoline], with 82%.

System in another series: not given
Experiment: not given
Settings: not given
With `O=C(Nc1ccc([N+](=O)[O-])cc1)N1CCN(c2ncnc3nc[nH]c23)CC1`, the melting point is 270 to 275 °C (dec.). Still for that read-out and setting: then `Cn1ncc2c(N3CCN(C(=S)NCc4cccnc4)CC3)ncnc21`, with 210 to 211 °C; and `Cl.Cl.Nc1nc(N2CCN(C(=S)NCc3cccnc3)CC2)c2[nH]cnc2n1`, with 180 to 185 °C (dec.).

`Cn1cnc2c(N3CCN(C(=O)Nc4ccc(Oc5ccccc5)cc4)CC3)ncnc21`: the melting point is 168 to 169 °C. As for `Nc1nc(N2CCN(C(=O)Nc3ccc(Oc4ccccc4)cc3)CC2)c2[nH]cnc2n1` [Compound 5, 4-(2-Amino-6-purinyl)-N-(4-phenoxyphenyl)-1-piperazinecarboxamide], the melting point is 244 to 258 °C. `O=C(Nc1ccc(Oc2ccccc2)cc1)N1CCN(c2ncnc3nc[nH]c23)CC1` [Compound 1, N-(4-Phenoxyphenyl)-4-(6-purinyl)-1-piperazinecarboxamide] showed a melting point of 250 to 251 °C.

`Cc1nn(C)c2ncc(C(N)=O)c(N3CCN(C(=O)Nc4ccc(Oc5ccccc5)cc4)CC3)c12` [Compound 12, 4-(5-Carbamoyl-1,3-dimethyl-4-1H-pyrazolo[3,4-b]pyridyl)-N-(4-phenoxyphenyl)-1-piperazinecarboxamide] had a melting point of 248 to 250 °C. The same measure, in the same setting: for `O=C(Nc1ccc(Oc2ccccc2)cc1)N1CCN(c2ncnc3ncccc23)CC1` [Compound 20, N-(4-Phenoxyphenyl)-4-(4-pyrido[2,3-d]pyrimidinyl)-1-piperazinecarboxamide] the value was 104 to 106 °C; for `Cn1ncc2c(N3CCN(C(=O)Nc4ccc(Oc5ccccc5)cc4)CC3)ncnc21`, 155 to 156 °C; for `S=C(NCc1ccccc1)N1CCN(c2ncnc3nc[nH]c23)CC1` [Compound 3, N-Benzyl-4-(6-purinyl)-1-piperazinethiocarboxamide], 255 to 260 °C. On the same count and under the same terms, then `Cl.Cl.S=C(NCc1cccnc1)N1CCN(c2ncnc3c2cnn3-c2ccccc2)CC1`, with 160 to 163 °C; and `Cn1ncc2c(N3CCN(C(=S)NCc4ccccc4)CC3)ncnc21`, with 175 to 176 °C. The same measure, in the same setting: then `Nc1nc(N2CCN(C(=S)NCc3ccccc3)CC2)c2[nH]cnc2n1` [Compound 7, 4-(2-Amino-6-purinyl)-N-benzyl-1-piperazinethiocarboxamide], with 242 to 245 °C; and `S=C(NCc1ccccc1)N1CCN(c2ncnc3ncccc23)CC1` [Compound 21, N-Benzyl-4-(4-pyrido[2,3-d]pyrimidinyl)-1-piperazinethiocarboxamide], with 169 to 170 °C; and `Nc1nc(N2CCN(C(=O)Nc3ccc([N+](=O)[O-])cc3)CC2)c2[nH]cnc2n1`, with 208 to 214 °C. For `Cl.Cl.S=C(NCc1cccnc1)N1CCN(c2ncnc3nc[nH]c23)CC1`, the melting point lay in the range of 178 to 185 °C.
